# According to patent publication US20200232974A1, “LYMPHOCYTES EXPRESSING CD73 IN CANCEROUS PATIENT DICTATES THERAPY” (Centre Léon-Bérard, priority 2016, published 2020):
# T1: CD73 (Homo sapiens, UniProt P21589)
# T1 construct: endogenous in cells
# T1 sequence (P21589 27-549): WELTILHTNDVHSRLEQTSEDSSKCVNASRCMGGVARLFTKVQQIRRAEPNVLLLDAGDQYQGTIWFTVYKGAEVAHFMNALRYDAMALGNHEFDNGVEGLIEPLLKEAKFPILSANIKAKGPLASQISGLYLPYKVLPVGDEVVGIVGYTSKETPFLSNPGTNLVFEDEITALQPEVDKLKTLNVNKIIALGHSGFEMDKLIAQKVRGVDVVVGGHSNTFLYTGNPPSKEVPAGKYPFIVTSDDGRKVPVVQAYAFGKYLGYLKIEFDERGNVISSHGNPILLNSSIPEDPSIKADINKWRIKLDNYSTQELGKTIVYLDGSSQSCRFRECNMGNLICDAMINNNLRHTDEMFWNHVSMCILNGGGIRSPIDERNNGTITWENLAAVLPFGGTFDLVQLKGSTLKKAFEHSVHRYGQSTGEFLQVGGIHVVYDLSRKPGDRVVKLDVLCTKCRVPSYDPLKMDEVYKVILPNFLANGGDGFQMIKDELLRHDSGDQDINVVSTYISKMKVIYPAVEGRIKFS
# T2: CD39 (Homo sapiens, UniProt P49961)
# T2 construct: Treg purified from HD blood degraded 48.24±6.20% of ATP into AMP; endogenous in cells
# T2 sequence (P49961 1-510): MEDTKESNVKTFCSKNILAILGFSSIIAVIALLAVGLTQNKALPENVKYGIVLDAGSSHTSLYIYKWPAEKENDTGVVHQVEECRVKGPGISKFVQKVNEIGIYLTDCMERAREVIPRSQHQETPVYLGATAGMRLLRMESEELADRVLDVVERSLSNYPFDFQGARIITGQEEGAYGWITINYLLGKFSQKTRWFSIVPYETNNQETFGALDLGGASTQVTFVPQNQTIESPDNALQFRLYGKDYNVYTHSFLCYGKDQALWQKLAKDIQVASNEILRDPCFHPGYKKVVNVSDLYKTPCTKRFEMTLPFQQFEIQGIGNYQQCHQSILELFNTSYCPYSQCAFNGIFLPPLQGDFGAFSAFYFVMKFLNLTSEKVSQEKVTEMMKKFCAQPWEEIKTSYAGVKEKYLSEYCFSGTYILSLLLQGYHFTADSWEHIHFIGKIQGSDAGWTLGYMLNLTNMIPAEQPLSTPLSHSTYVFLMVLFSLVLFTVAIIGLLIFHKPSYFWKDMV
# Key:
# [1] = system: CD73 and TIGIT expression on CD4+ and CD8+ T cells; assay: Blood immune-monitoring of metastatic melanoma patients during anti-PD1 treatment (multiparametric flow cytometry); type: in vivo, human
# Description: 2nd line metastatic melanoma patients treated with anti PD-1 (Nivolumab, 3 mg/kg/i.v, every 2 weeks) were subjected to blood immune-monitoring, by multiparametric flow cytometry analysis, to assess, using specific coupled mAbs against CD73 (APC) and TIGIT (PE), the modulation of expression of both ICP on CD4+ and CD8+ T cells before (inclusion, WO) and during treatment (W2, W12).
# CD73+ Tconv = assay: Co-culture of Treg with CD73+ or CD73neg Tconv, with or without exogenous ATP: proliferation (CTV dilution); type: cell-based, human; conditions: Treg:Tconv ratio 1/1; round-bottomed wells; anti-CD3/anti-CD28 beads
# From the text: To analyze the biological impact of Ado generation by cooperation between CD39^+ Treg and CD73^+ Tconv, we co-cultured Treg labeled with proliferation marker CFSE in presence of CD73^+ or CD73^neg Tconv labeled with Cell Trace Violet (CTV) at a ratio 1/1 in presence or absence of exogenous ATP in round-bottomed wells with compact cell density in presence of anti-CD3/anti-CD28 beads. […] In contrast, CTV-labeled CD73^+ or CD73^neg proliferation that was not altered by the addition of Treg due to the strong activation. […] To mimic physiological conditions, Treg, CD73^+ and CD73^neg Tconv subsets were mixed together at physiological ratio (10%/20%/70%) observed in blood. ATP induced inhibition of the bulk proliferation which can be rescued by the combined addition of CD39 and CD73 inhibitors. The proliferation of each subset was analyzed by specific proliferation markers (CFSE and CTV alone or in combination).
# CD73 = molecular target: T1, CD73; assay: Hydrolysis of C13N15 AMP into Ado by CD73+ Tconv (HPLC); type: cell-based
# Description: To confirm this hypothesis, we quantified, by HPLC, the capacity of Treg to degrade ATP into Ado. To prevent interference with endogenous ATP or metabolites, these experiments were performed with exogenous C13N15 stable isotope ATP. After two hours, Treg purified from HD blood degraded 48.24±6.20% of ATP into AMP without generating neither Ado nor Inosine. […] Moreover, we confirmed that CD73^+ and CD73^neg Tconv were not able to degrade C13N15 ATP.
# Using this technique, we confirmed the enzymatic functionality of CD73 on Tconv. Only CD73^+ Tconv were capable of hydrolyzing C13N15 AMP into Ado and this was reversed by addition of a specific CD73 inhibitor (AMPCP).
# CD73+ or CD73neg Tconv [2] = assay: 4 days' proliferation of purified CD73+ or CD73neg Tconv with anti-CD3/anti-CD28 beads; type: cell-based, human
# Description: Addition of recombinant ADA (rhADA, 1 μg/ml), inducing degradation of Ado into Ino restored both T cell subsets proliferation confirming the immunosuppressive impact of Ado.
# [3] = system: PBMC-purified memory CD4+ Tconv; assay: in vitro; conditions: 48 h
# Description: (§1) Memory CD4^+ Tconv purified from healthy donor PBMC were used. Purified 10^5 CD4^+ Tconv were cultured in 96-round bottomed wells in complete RPMI medium for 48 h in presence of a strong TCR stimulation (expand beads, ratio bead:cell 1:8)+IL-2 (50UI/ml) in absence (medium condition) or in presence of graded doses of Taxol (0.01; 0.1; 1 μM). Viability was analyzed by multiparametric flow cytometry on different cell subsets according to their expression of CD73 and MDR1 (CD73 MDR1, CD73^+MDR1^neg, CD73^negMDR1^+, CD73^negMDR1^neg). Survival was analyzed by multiparametric flow cytometry using Annexin-V and DAPI stainings (both from Becton Dickinson) according to CD73 and MDR1 expression. % of viable cells (Annexin V^neg DAPI^neg) was compared according to the cell subset analyzed.
# (§2) Their survival was analyzed by multiparametric flow cytometry using with Annexin-V and DAPI stainings (both from Becton Dickinson) according to CD73 and MDR1 expression. The percentage of viable cells (Annexin V^neg DAPI^neg) was compared according to the cell subset analyzed.
# in vitro = conditions: human
# Description: as §1, §2
# CD73+ or CD73neg Tconv [4] = assay: Cytokine secretion of purified Tconv subsets after 2 days of anti-CD3/anti-CD28 bead activation; type: cell-based, human; conditions: 2 days of activation; addition of Ado
# Description: Moreover, the impact of Ado and AMP on cytokine secretion capacity was analyzed on both purified Tconv subsets. To avoid a confounding effect of Ado and AMP on proliferation in this analysis we analyzed cytokine secretion after 2 days of activation with anti-CD3/anti-CD28 beads which was determined as the maximal length of activation without induction of any proliferation (CFSE dilution). First, we confirmed that CD73^+ Tconv produced more IL-2, TNF-α, IFN-γ, IL-17A, IL-22, GM-CSF and IL-3 but less IL-10, IL-13 and IL-21 than CD73^neg in this activation setting. As shown previously for the proliferation, the secretion of the cytokines produced by CD73^+ or CD73^neg Tconv was inhibited by the addition of Ado.
# CD39 = molecular target: T2, CD39; assay: Degradation of exogenous C13N15 ATP by purified Treg, quantified by HPLC; type: cell-based; conditions: Treg purified from HD blood, two hours
# Description: FIG. 3: Breast and ovarian tumors contain highly functional CD39+ Treg and CD73+ Tconv with Th1/17 characteristics. (A) Representative expression of CD39 and CD73 analyzed on memory CD4+ Treg and Tconv from Breast (B) and ovarian (OT) by flow cytometry. Frequency of CD39+ cells (B) and Δ CD39 MFI on these cells (C) among paired Treg and Tconv were analyzed by flow cytometry among BT and OT and statistical analysis was performed by Two-way Anova analysis. (D) Purified tumor-associated Treg were assessed for ATP (37.5 μM) degradation by HPLC measurements and compared to HD-blood Treg. In some conditions 30 min pre-incubation with ARL67156 (250 μM) was used to assess the role of CD39 functional activity. (E,F) Δ CD39 MFI of CD39+ cells among Treg (E) or Tconv (F) from paired peripheral blood and BT or OT were analyzed. Statistical analysis was performed by using Two-way Anova analysis. (G) Frequency of CD73+ cells among Tconv from BT and OT was analyzed by flow cytometry. Statistical analysis was performed by using Kruskal-Wallis test.
# To confirm this hypothesis, we quantified, by HPLC, the capacity of Treg to degrade ATP into Ado. To prevent interference with endogenous ATP or metabolites, these experiments were performed with exogenous C13N15 stable isotope ATP. After two hours, Treg purified from HD blood degraded 48.24±6.20% of ATP into AMP without generating neither Ado nor Inosine. […]
# MDR1 = molecular target: T3, MDR1 (Homo sapiens, UniProt P08183); assay: MDR1 functionality: Rhodamine 123 (Rhd123) efflux by flow cytometry; type: cell-based; conditions: HD-PBMC stained with Rhd123 (1 μg/ml); Elacridar 1 μM
# T3 construct: After staining of HD-PBMC with Rhd123 we analyzed, by flow cytometry, cells endowed with Rhd123 efflux function; endogenous in cells
# T3 sequence (P08183 whole entry): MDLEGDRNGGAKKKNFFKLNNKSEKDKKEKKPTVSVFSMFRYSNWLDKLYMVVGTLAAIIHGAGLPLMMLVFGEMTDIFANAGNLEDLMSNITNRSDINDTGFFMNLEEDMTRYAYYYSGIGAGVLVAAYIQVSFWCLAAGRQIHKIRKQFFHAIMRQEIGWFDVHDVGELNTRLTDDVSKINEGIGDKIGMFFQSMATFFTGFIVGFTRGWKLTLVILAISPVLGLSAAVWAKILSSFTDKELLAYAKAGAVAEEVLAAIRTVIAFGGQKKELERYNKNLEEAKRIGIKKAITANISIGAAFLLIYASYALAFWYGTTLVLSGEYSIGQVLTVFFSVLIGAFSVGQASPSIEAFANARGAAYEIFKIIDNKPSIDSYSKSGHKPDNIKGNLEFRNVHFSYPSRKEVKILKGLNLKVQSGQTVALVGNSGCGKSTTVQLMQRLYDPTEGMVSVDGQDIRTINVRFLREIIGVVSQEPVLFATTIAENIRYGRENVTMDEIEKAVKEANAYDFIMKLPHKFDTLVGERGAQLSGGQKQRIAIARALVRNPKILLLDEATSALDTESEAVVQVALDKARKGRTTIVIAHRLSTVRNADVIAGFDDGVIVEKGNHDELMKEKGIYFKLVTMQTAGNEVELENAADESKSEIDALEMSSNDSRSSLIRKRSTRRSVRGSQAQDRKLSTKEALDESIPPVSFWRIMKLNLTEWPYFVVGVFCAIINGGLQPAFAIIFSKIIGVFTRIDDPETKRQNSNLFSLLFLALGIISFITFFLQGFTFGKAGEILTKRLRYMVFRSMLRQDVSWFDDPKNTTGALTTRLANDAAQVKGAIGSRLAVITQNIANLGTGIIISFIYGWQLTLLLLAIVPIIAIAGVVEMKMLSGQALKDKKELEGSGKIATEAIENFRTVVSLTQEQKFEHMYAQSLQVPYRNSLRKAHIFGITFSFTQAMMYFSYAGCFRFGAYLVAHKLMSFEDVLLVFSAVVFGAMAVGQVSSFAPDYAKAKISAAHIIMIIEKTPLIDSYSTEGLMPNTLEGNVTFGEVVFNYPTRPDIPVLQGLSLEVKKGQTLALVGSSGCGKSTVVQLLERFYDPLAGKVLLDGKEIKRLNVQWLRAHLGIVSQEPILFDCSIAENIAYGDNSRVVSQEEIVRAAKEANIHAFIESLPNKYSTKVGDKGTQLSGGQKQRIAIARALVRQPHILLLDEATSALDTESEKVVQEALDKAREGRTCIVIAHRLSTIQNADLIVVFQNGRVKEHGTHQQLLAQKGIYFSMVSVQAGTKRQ
# Description: (B, C) MDR1 functionality was assessed on CD73^+ and CD73^neg Tconv by their capacity to exclude Rhd123 (1 μg/ml) analyzed by flow cytometry. […] Frequency of Rhd123^neg cells was analyzed among CD73^+ (black) and CD73^neg (white) Tconv (D). Statistical analysis was performed by using Wilcoxon test.
# Moreover, we took advantage of the physiological role of MDR1 in the efflux of specific fluorescent substrate like Rhodamine 123 (Rhd123). After staining of HD-PBMC with Rhd123 we analyzed, by flow cytometry, cells endowed with Rhd123 efflux function.
molecule,measurement,setting,value
Nivolumab: anti PD-1 antibody given to metastatic melanoma patients,modulation of CD73 expression on CD4+ or CD8+ T cells,"[1]; 11 patients, 3 mg/kg i.v. every 2 weeks, before (W0) and during treatment (W2, W12)",No significant modulation
same,modulation of TIGIT expression,"[1]; between W0 and W2, representative dot plot",increased
Nc1ncnc2c1ncn2[C@@H]1O[C@H](COP(=O)(O)CP(=O)(O)O)[C@@H](O)[C@H]1O [AMPCP],effect on inhibition of CD73+ Tconv proliferation induced by Treg and ATP,CD73+ Tconv,reversed
same,effect on hydrolysis of C13N15 AMP into Ado by CD73+ Tconv,CD73,reversed
same,effect on AMP-induced inhibition of CD73+ Tconv proliferation,CD73+ or CD73neg Tconv [2]; added with AMP (150 μM final concentration),reversion of inhibition
Nc1ncnc2c1ncn2[C@@H]1O[C@H](COP(=O)(O)O)[C@@H](O)[C@H]1O [AMP],effect on proliferation of CD73+ Tconv,"CD73+ or CD73neg Tconv [2]; metronomic addition, 150 μM final concentration, 4 days",inhibited
CC(=O)O[C@H]1C(=O)[C@@]2(C)[C@H]([C@H](OC(=O)c3ccccc3)[C@]3(O)C[C@H](OC(=O)[C@H](O)[C@@H](NC(=O)c4ccccc4)c4ccccc4)C(C)=C1C3(C)C)[C@]1(OC(C)=O)CO[C@@H]1C[C@@H]2O [Taxol],sensitivity to Taxol-induced apoptosis,"[3]; CD73+MDR1neg subset, high Taxol doses",sensitive to apoptosis
same,sensitivity to Taxol-induced apoptosis,[3]; CD73negMDR1neg population,highly sensitive
same,"viability at 48 h, 1 µM",in vitro,80%
"Nc1ncnc2c1ncn2[C@@H]1O[C@H](CO)[C@@H](O)[C@H]1O [Ado, adenosine]",effect on IL-17A secretion by Tconv CD73+ (or CD73neg),CD73+ or CD73neg Tconv [4],not altered
same,effect on IL-22 secretion,CD73+ or CD73neg Tconv [4],slightly inhibited
same,effect on secretion of the cytokines produced by CD73+ or CD73neg Tconv,CD73+ or CD73neg Tconv [4],inhibited
same,effect on proliferation of both subsets (CD73+ and CD73neg Tconv),"CD73+ or CD73neg Tconv [2]; metronomic addition 75 μM/day, 300 μM final concentration, 4 days",inhibited
CCN(CC)c1ncnc2c1ncn2[C@@H]1O[C@H](COP(=O)(O)OP(=O)(O)C(Br)(Br)P(=O)(O)O)[C@@H](O)[C@H]1O [ARL67156],effect on degradation of ATP into AMP by Treg,CD39,completely inhibited
COc1cc2c(cc1OC)CN(CCc1ccc(NC(=O)c3cccc4c(=O)c5cccc(OC)c5[nH]c34)cc1)CC2 [Elacridar],effect on Rhd123 efflux by Tconv,MDR1,completely abrogated
"rhADA: recombinant Adenosine Deaminase, inducing degradation of Ado into Ino (protein, UniProt P00813 2-363, looked up) Adenosine deaminase: AQTPAFDKPKVELHVHLDGSIKPETILYYGRRRGIALPANTAEGLLNVIGMDKPLTLPDFLAKFDYYMPAIAGCREAIKRIAYEFVEMKAKEGVVYVEVRYSPHLLANSKVEPIPWNQAEGDLTPDEVVALVGQGLQEGERDFGVKARSILCCMRHQPNWSPKVVELCKKYQQQTVVAIDLAGDETIPGSSLLPGHVQAYQEAVKSGIHRTVHAGEVGSAEVVKEAVDILKTERLGHGYHTLEDQALYNRLRQENMHFEICPWSSYLTGAWKPDTEHAVIRLKNDQANYSLNTDDPLIFKSTLDTDYQMTKRDMGFTEEEFKRLNINAAKSSFLPEDEKRELLDLLYKAYGMPPSASAGQNL",effect on Ado-inhibited proliferation of both T cell subsets,CD73+ or CD73neg Tconv [2]; rhADA 1 μg/ml added with exogenous Ado,restored
